# Laboratory results as given in patent US9889120B2, “Combination drug therapies for cancer and methods of making and using them” (Vicus Therapeutics, LLC, priority 2016, dated 2018).
# Columns and labels:
# advanced HCC [1] = assay: Phase II multi-center, randomized, double-blind, placebo-controlled study of VT-122 or placebo on a background of stable-dose sorafenib (Example 1); type: in vivo, human; details: advanced HCC patients
# Protocol: This was a multi-center, randomized, double-blind, double-dummy, placebo-controlled study.
# VT-122 (Vicus Therapeutics, Morristown N.J.): patients entered a three week dose escalation period, with propranolol maximum at 120 mg, and etodolac maximum at 600 mg. VT-122 was administered in split doses in the morning and evening.
# After the three week dose escalation period, patients were to continue therapy for four four-week cycles.
# Secondary endpoint=lean body mass, overall survival, muscle function, symptom assessment.
# advanced HCC [2] = assay: Randomized investigator initiated trial: sorafenib alone (Group S) vs sorafenib after one week of propranolol and etodolac (Group SPE) (Example 2); type: in vivo, human
# Protocol: Data on the use of the combination in advanced hepatocellular carcinoma patients are lacking.
# Patients with advanced HCC were eligible for this randomized investigator initiated trial. Patients received propranolol (P) and etodolac (E) (or “PE”) daily for one week prior to starting sorafenib (S). PE was administered to maximize the therapeutic benefit and minimize side effects. The primary endpoint was survival.
# Twenty-four patients were randomized to either sorafenib alone (Group S) or sorafenib after one week of propranolol and etodolac (Group SPE). Population: median age, 54.6 years; 74% male; BMI, 23.0; C-reactive protein (CRP), 69.3; cirrhosis (8.8%), fibrosis (50%), hepatitis B positive (85%). The patient population is summarized:
# The study design is schematically illustrated in FIG. 6. Patients received PE daily for one week prior to starting S.
# Dosing for PE was as follows: • 8 AM 20 mg propranolol+300 mg etodolac • 3 PM 20 mg propranolol • 8 PM 300 mg etodolac
structure (smiles),measurement,setting,value
"CNC(=O)c1cc(Oc2ccc(NC(=O)Nc3ccc(Cl)c(C(F)(F)F)c3)cc2)ccn1 [Sorafenib, 4-[4-[[4-chloro-3-(trifluoromethyl)phenyl]carbamoylamino]phenoxy]-N-methyl-pyridine-2-carboxamide]","Kaplan-Meier median survival (95% CI), days",advanced HCC [1],"267 (32, NR) days"
same,percent of patients with loss in weight,advanced HCC [2]; FIG. 8,50%
same,"12 Month Survival, Percent","advanced HCC [2]; N=12 per group, table",25.0%
same,"Hand foot skin reaction (HFS) grade 2 or 3, percent of patients",advanced HCC [2]; advanced HCC patients,67%
same,Median survival,advanced HCC [2]; advanced HCC patients,10 months
same,Twelve month survival,"advanced HCC [2]; advanced HCC patients, 12 per group",25.0%
same,"12 Month Survival, Alive",advanced HCC [2]; number of patients alive of N=12,3
